The text below walks through data of patent US12433876B2, “Septin inhibitors for treatment of cancers” (UNIVERSITY OF ROCHESTER, priority 2019, dated 2025).

The target of one test is T1, septin-2 (Homo sapiens, UniProt Q15019).
T1 sequence (Q15019 1-361): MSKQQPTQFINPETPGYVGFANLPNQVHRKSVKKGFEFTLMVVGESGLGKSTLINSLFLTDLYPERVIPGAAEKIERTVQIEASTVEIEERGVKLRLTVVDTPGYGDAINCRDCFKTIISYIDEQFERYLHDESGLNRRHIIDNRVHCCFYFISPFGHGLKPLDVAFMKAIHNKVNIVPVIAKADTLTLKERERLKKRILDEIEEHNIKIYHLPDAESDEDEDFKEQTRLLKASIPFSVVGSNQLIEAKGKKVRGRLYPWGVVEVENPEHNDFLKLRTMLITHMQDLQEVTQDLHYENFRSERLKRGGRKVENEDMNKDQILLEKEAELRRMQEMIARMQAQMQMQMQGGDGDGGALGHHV
In words: Confocal analysis of septin-2 filament structure. It is filed as cell-based. The note with it: 48 hours. The text has this:
Cell Cycle Protein Expression. Cell Cycle Antibody Array (FullMoon BioSystems Inc, catalogue number: ACC:058), a high throughput ELISA based antibody array, designed for qualitative/semi-quantitative protein expression profiling was employed to investigate the protein changes after drug treatment. PANC-1 cells were lysed in buffer containing protease and phosphatase inhibitors (Cell Signaling, catalog number: 9803S). Total protein content was quantified by Bradford assay and equal amounts of proteins were analyzed in duplicate with arrays containing 4 to 6 spots for each of 60 probes (ACC058, Cell Cycle Antibody Array; Full Moon Biosystems, Sunnyvale, Calif.), according to manufacturer's instructions. After background correction, mean signal intensities were measured using FullMoon Inc's imaging services. Protein expressions in both the naïve and 328 treatment group was normalized to GAPDH signals. Confocal Analysis of Septin Disarrangement. To determine the impact of UR214-9 treatment on Septin-2 structure in cells, PANC-1 or JIMT-1 cells were seeded on glass slides and allowed to adhere overnight. The media was replaced with complete DMEM media supplemented with DMSO or UR214-9 (1 μM and 70 nM) and cells were incubated for 48 hours. Media was replaced again with new complete medium and fixed with neutral buffered formalin for 15 minutes at […]. Media was removed and cells were washed repeatedly with PBST (5×5 mL). The cells were stained with Septin-2 antibody (Sigma Aldrich, catalog number: HPA018481) in PSB overnight at […]. Media was removed again and cells were washed with 2×5 mL PBST. The cells were stained with fluorescence linked secondary antibody for 1 hr under dark. Slides were washed repeatedly in dark for 7×5 mL PBST, mounting medium containing DAPI (Vector labs) were applied and covered with glass slide. The slides were stored in dark at […] till analysis. Confocal images were obtained and processed essentially as published earlier (see Moore, R. G., Hill, E. K., Horan, T., Yano, N., Kim, K., MacLaughlan, S., Lambert-Messerlian, G., Tseng, Y. D., Padbury, J. F., Miller, M. C., Lange, T. S., Singh, R. K. Sci Rep. 4, 3574, 2014). Pancreatic tumor microarray (US Biomax, cat no: T142a) were deparaffinized, processed and stained with Septin-2 antibody (Sigma Aldrich, cat number: HPA018481) overnight, washed with PBST and incubated with source matched secondary (FITC) for an hour. Slide was washed in PBST (5×10 mL) for five minutes each. DAPI containing mounting media was applied and covered with a glass slide. Confocal images were acquired with Nikon C1si confocal microscope (Nikon Inc. Mellville N.Y.) using diode lasers 402, 488 and 561. […] Five cells were outlined and analyzed per field. […]

Another test deals with septin-6 (Homo sapiens, UniProt Q14141). In words: Confocal analysis of septin-6. It is filed as cell-based. The note with it: SKOV-3, 1 μM, 48 hours.
Sequence of septin-6 (Q14141 whole entry): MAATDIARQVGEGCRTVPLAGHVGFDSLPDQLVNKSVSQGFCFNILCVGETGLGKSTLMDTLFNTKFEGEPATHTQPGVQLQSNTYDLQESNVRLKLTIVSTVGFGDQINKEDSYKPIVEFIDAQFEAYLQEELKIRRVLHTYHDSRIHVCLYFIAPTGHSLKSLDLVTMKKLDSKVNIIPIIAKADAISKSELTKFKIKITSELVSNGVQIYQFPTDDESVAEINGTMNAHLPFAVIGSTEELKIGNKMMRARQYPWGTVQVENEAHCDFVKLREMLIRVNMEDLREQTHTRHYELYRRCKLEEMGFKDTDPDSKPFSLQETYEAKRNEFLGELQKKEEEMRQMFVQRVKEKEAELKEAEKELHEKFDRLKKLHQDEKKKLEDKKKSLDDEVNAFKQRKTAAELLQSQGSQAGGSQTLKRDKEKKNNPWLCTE

For the compound `O=C(Nc1ccccc1)Nc1ccnc(Cl)c1` [FCF, N-(2-chloro-4-pyridyl)-N′-phenylurea, reference compound], the septin-2 filaments entry at septin-2 (BXPC-3 cells, 60 μM) is reported as “strengthen the septin-2 filaments”.
As to `O=C(Nc1cc(Cl)nc(Cl)c1)Nc1cccc(SC(F)(F)F)c1F` [UR214-9], the septin-2 needles entry was “structural disruptions and relocation to nuclear periphery” on septin-2 (JIMT-1, 1 μM); “disarranged and translocated at the cell-surface” at septin-2 (PANC-1, 1 uM). Moreover, the septin-2 filaments result at septin-2 (SKOV-3, 1 μM) is recorded as “complete disruption of septin-2 filaments”. Moreover, the “septin-6 (confocal)” value on septin-6 is “decreased upon treatment”.
